Data taken from article PMC6838683, “Discovery of Human Signaling Systems: Pairing Peptides to G Protein-Coupled Receptors” (Cell, 2019).
Residues, ends and D or L forms follow the SMILES beside them.

Tests used:
Format in all cases: cell-based
GPR68 = GPR68 (Homo sapiens, UniProt Q15743); test: GloSensor cAMP assay (Gs), allosteric operational model fitting; parameters: expressed in transfected cells; host or cells: HEK293T, transient (PEI), co-transfected with GloSensor cAMP plasmid; conditions: for Log(ab/KB): allosteric operational model parameter, GPR68 GloSensor cAMP
Method: GPR68-mediated cAMP signaling was measured using GloSensor cAMP assays as published previously ([Huang et al., 2015], [Yu et al., 2019]) with modifications as indicated below. Calcium- and magnesium-free HBSS was supplemented with different organic buffer reagents for different pH solutions, 20 mM 2-(N-morpholino)ethanesulfonic acid (MES, Alfa Aesar) for pH 6.00 – 6.70, 20 mM 4-(2-hydroxyethyl)-1-piperazineethanesulfonic acid (HEPES, Fisher) for pH 6.80 – 8.20, and 20 mM (tris(hydroxymethyl)methylamino)propanesulfonic acid (TAPS) for pH 8.30 – 8.60. The phosphodiesterase (PDE) inhibitor Ro 20-1724 (10 μM final, Cayman Chemical) was included in pH buffers to eliminate potential effect of PDE […]. HEK293T cells were transfected with a modified polyethylenimine (PEI, Polysciences) transfection method ([Longo et al., 2013]). For a 15-cm dish of HEK293T cells with 25 mL growth medium, 8 μg receptor DNA and 8 μg GloSensor DNA (Promega) were mixed in 1 mL of Opti-MEM medium followed by addition of 80 μL PEI reagents. The mixture was added to cells after 20 min incubation at room temperature. Overnight transfected cells were plated in poly-L-lysine (Sigma) coated 384-well white clear bottom plates (Greiner Bio-One, #781098) using DMEM (Corning) + 1% dialyzed FBS (Omega Scientific) for at least 6 h (up to 24 h). Cells were removed of medium before receiving 20 μL/well of 3.5 mM luciferin (Goldbio) prepared in assay buffer (HBSS, 20 mM TAPS, pH 8.40, 10 μM Ro 20-1724) for 1 h at 37°C. Luciferin loading solutions were removed and premixed drug solutions at desired pH conditions were added to cells (25 μL/well). Luminescence was measured 25-30 min after drug application. Results were normalized (basal and maximum responses in the absence of modulator were set to be 0 and 100%) and pooled for analysis using GraphPad Prism.
All of the other parameters, including allosteric affinity cooperativity (α), allosteric modulator binding affinity KB, orthosteric agonist (protons) efficacy τA, system maximal response, and slope factor n were all globally shared for all datasets for each modulator. […] We therefore used an allosteric index, log(αβ/KB) ([Kenakin, 2017a]), which contains both allosteric binding affinity and cooperativity, to quantify the overall allosteric activity.

GPR55 [1] = biological target: T1, GPR55 (Homo sapiens, UniProt Q9Y2T6); test: Real-time receptor internalization (TR-FRET), concentration-response; parameters: hIL-2Ra signal peptide (N); expressed in transfected cells; conditions: receptor GPR55, mean, SEM and n (3-4); for EC50: read-out: Internalization assays pEC50 (converted)
Method: (§1) 48 hr prior to parallel assaying, SNAP-tagged oGPCR cells were plated (10,000 cells/well) in fibronectin-coated 384-well Epic biosensor microplates (Corning) and poly-D-lysine coated white 384-well plates (for internalization assays). SNAP- GLP-1 receptor was plated alongside orphan receptor cells as an internal assay control for internalization assays. Receptor-expression was induced with 0.1 μg/ml doxycycline.
A TR-FRET real-time internalization assay was used to examine peptide-dependent changes in orphan receptor localization as described previously ([Foster and Bräuner-Osborne, 2018]). Surface-expressed SNAP-tagged receptors were labeled with a cell-impermeable luminescent terbium cryptate (100 nM SNAP Lumi4-Tb; Cisbio, France) for 1 hr at 37°C. Cells were washed to remove excess terbium and incubated with fluorescein-O-acetic acid (100 μM; Sigma Aldrich) for 5 min at 37°C. Peptides were added as for DMR assays, and internalization responses were recorded for 60 min at 37°C using an EnVision 2104 Multimode plate reader (PerkinElmer). 100 nM GLP-1 was used as a positive control for SNAP-GLP1R internalization. Real-time internalization responses were calculated based on TR-FRET (excitation 340 nm; emission 520 nm and 615 nm), and were expressed as the ratio between donor (terbium) and acceptor (fluorescein) emission. For peptide screening analysis (both DMR and internalization assays), we calculated the area under the curve from the real-time traces. […] Validation experiments for receptor internalization were performed as above. Internalization data was processed in MS-Excel and area under the curve was used to generate concentration-response curves using GraphPad Prism 7.0. Data represent mean ± standard error of the mean (SEM) from at least 3 biologically independent experiments.

GPR55 [2] = biological target: T1, GPR55; test: Dynamic mass redistribution (DMR), concentration-response; parameters: hIL-2Ra signal peptide (N); expressed in transfected cells; conditions: receptor GPR55, mean; for DMR assays Emax (peak or AUC): SEM and n (1-4); for EC50: SEM and n (2-4), read-out: DMR assays pEC50 (converted)
Method: as §1
DMR assays provide a single integrated readout of ligand-dependent cellular response, utilizing an optical biosensor in specialized microplates to detect wavelength shifts of reflected light as it passes through the biosensor and the lower portion of the cell (∼150-200 nm). As a signal pathway agnostic approach, DMR assays are well-suited to the study of GPCRs ([Fang et al., 2008], [Schröder et al., 2011]). The mass redistribution response (Δ picometer (pm)) likely reflects a number of intracellular events, including cytoskeletal rearrangement, protein trafficking and receptor internalization. Orphan receptor-expressing cells were gently washed twice with assay buffer (HBSS with 1 mM CaCl2, 1 mM MgCl2, 20 mM HEPES, 0.01% pluronic F-68, pH 7.4) containing 0.1% DMSO and cells were equilibrated for 90 min at 22°C in the EPIC Benchtop (BT) System (Corning) to establish a stable DMR signal. After 3-5 min baseline recordings, peptides (10 μM) were added in duplicate wells using an electronic 384-channel Viaflo pipette (Integra Biosciences, Switzerland) and DMR responses were measured for 60 min at 22°C. 100 nM norepinephrine was included as an internal assay control to assess the cellular DMR response via endogenously-expressed adrenoceptors in the TREx 293 cells. Real-time data were processed using the BT to column converter MS-Excel macro (Corning) and analyzed in GraphPad Prism 7.0. DMR recordings in peptide screening experiments were buffer and solvent corrected and the area under the curve (AUC) was quantified. For subsequent validation experiments, peptides were diluted in assay buffer containing 0.1% DMSO and DMR assays were performed as above. […] Data represent mean ± standard error of the mean (SEM) from at least 3 biologically independent experiments.

T1 sequence (Q9Y2T6 2-319 limits assumed): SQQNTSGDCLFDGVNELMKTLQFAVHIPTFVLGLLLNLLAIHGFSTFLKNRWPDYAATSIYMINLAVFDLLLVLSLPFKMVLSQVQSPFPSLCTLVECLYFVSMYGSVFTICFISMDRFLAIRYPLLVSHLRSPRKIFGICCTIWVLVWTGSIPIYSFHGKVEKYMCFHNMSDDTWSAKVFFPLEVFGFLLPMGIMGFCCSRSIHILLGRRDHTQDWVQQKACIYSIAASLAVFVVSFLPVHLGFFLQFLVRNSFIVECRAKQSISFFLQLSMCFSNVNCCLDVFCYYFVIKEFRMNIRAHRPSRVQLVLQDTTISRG
Chain of GPR68 (Q15743 whole entry): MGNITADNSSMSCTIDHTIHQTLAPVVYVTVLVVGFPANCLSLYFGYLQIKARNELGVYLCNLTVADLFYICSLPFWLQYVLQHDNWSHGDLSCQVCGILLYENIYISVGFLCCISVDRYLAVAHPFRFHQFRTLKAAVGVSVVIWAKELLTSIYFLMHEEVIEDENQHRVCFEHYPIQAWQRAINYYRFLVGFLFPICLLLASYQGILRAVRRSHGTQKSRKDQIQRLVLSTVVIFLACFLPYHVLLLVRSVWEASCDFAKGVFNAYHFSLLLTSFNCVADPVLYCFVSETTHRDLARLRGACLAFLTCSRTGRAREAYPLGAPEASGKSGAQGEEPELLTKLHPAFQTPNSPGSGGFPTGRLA

| Molecule | Internalization assays Emax (AUC) (GPR55 [1]) | EC50 (GPR55 [1]) | DMR assays Emax (peak or AUC) (GPR55 [2]) | EC50 (GPR55 [2]) | also measured |
| --- | --- | --- | --- | --- | --- |
| Nc1nc(NCc2ccccc2)nc(-c2ccccc2CO)n1 [Ogerin] | – | – | – | – | Log(ab/KB) (GPR68; replicate 1): 5.25; Log(ab/KB) (GPR68; replicate 2): 5.23; Log(ab/KB) (GPR68; replicate 3): 5.25 |
| CC[C@H](C)[C@H](NC(=O)[C@H](CCCNC(=N)N)NC(=O)[C@H](C)NC(=O)CNC(=O)[C@H](CCCCN)NC(=O)[C@H](CCCNC(=N)N)NC(=O)[C@@H](NC(=O)[C@H](C)NC(=O)[C@H](CS)NC(=O)[C@H](CCC(N)=O)NC(=O)[C@H](CCC(=O)O)NC(=O)CNC(=O)[C@H](C)NC(=O)[C@H](CC(=O)O)NC(=O)[C@H](CS)NC(=O)[C@H](CCSC)NC(=O)[C@@H]1CCCN1C(=O)[C@@H](NC(=O)[C@H](CCC(N)=O)NC(=O)CNC(=O)[C@@H](N)Cc1ccc(O)cc1)C(C)C)C(C)C)C(=O)O [Pepetide 139] (H-YGQVPMCDAGEQCAVRKGARI-OH; N-terminus assumed) | – | – | – | – | Log(ab/KB) (GPR68; replicate 1): 5.24; Log(ab/KB) (GPR68; replicate 2): 5.36; Log(ab/KB) (GPR68; replicate 3): 5.40; Log(ab/KB) (GPR68; replicate 4): 5.40; Fold difference (GPR68; fold difference of ab/KB relative to Ogerin): 1.28 |
| CC[C@H](C)[C@H](NC(=O)CNC(=O)[C@H](CC(=O)O)NC(=O)[C@H](CO)NC(=O)[C@@H](N)Cc1c[nH]cn1)C(=O)N[C@@H](Cc1ccccc1)C(=O)N[C@H](C(=O)N[C@@H](CC(=O)O)C(=O)N[C@@H](CO)C(=O)N[C@@H](Cc1ccc(O)cc1)C(=O)N[C@@H](CO)C(=O)N[C@@H](CCCNC(=N)N)C(=O)N[C@@H](Cc1ccc(O)cc1)C(=O)N[C@@H](CCCNC(=N)N)C(=O)N[C@@H](CCCCN)C(=O)N[C@@H](CCC(N)=O)C(=O)N[C@@H](CCSC)C(=O)N[C@@H](C)C(=O)N[C@H](C(=O)O)C(C)C)[C@@H](C)O [Peptide 168.5] | 17.8 | 75900 nM | 31768 | 1 nM | – |
| CC[C@H](C)[C@H](NC(=O)CNC(=O)[C@H](CC(=O)O)NC(=O)[C@H](CO)NC(=O)[C@@H](N)Cc1c[nH]cn1)C(=O)N[C@@H](Cc1ccccc1)C(=O)N[C@H](C(=O)N[C@@H](CC(=O)O)C(=O)N[C@@H](CO)C(=O)N[C@@H](Cc1ccc(O)cc1)C(=O)N[C@@H](CO)C(=O)N[C@@H](CCCNC(=N)N)C(=O)N[C@@H](Cc1ccc(O)cc1)C(=O)N[C@@H](CCCNC(=N)N)C(=O)N[C@@H](CCCCN)C(=O)N[C@@H](CCC(N)=O)C(=O)N[C@@H](CCSC)C(=O)N[C@@H](C)C(=O)N[C@H](C(=O)N[C@@H](CCCCN)C(=O)N[C@@H](CCCCN)C(=O)N[C@@H](Cc1ccc(O)cc1)C(=O)N[C@@H](CC(C)C)C(=O)N[C@@H](C)C(=O)N[C@@H](C)C(=O)N[C@H](C(=O)N[C@@H](CC(C)C)C(=O)NCC(=O)N[C@@H](CCCCN)C(=O)N[C@@H](CCCNC(=N)N)C(=O)N[C@@H](Cc1ccc(O)cc1)C(=O)N[C@@H](CCCCN)C(=O)N[C@@H](CCC(N)=O)C(=O)N[C@@H](CCCNC(=N)N)C(=O)N[C@H](C(=O)N[C@@H](CCCCN)C(=O)N[C@@H](CC(N)=O)C(=O)N[C@@H](CCCCN)C(=O)NCC(=O)N[C@@H](CCCNC(=N)N)C(=O)N[C@@H](CCCNC(=N)N)C(=O)N[C@H](C(=O)N[C@@H](C)C(=O)N[C@@H](Cc1ccc(O)cc1)C(=O)N[C@@H](CC(C)C)C(=O)O)[C@@H](C)CC)C(C)C)C(C)C)C(C)C)[C@@H](C)O [Peptide 168.6] | – | 0.115 nM | – | 331 nM | – |
| CC(C)C[C@H](NC(=O)[C@@H](N)CC(=O)O)C(=O)N[C@@H](CC(C)C)C(=O)N1CCC[C@H]1C(=O)O [Peptide 213.1] (H-DLLP-OH) | – | 195 nM | – | 0.00724 nM | – |
| C[C@H](NC(=O)[C@@H](N)Cc1c[nH]c2ccccc12)C(=O)N[C@@H](CCCNC(=N)N)C(=O)NCC(=O)N[C@@H](CS)C(=O)N[C@@H](CO)C(=O)N[C@H](C(=O)NCC(=O)N[C@@H](CC(N)=O)C(=O)O)[C@@H](C)O [Peptide 213.2] (H-WARGCSTGN-OH) | – | 0.724 nM | – | 0.0676 nM | – |
| DLLPPRTPPYQVHISHREARGPSFRICVDFLG [Peptide 213.5] | 19.6 | – | -71711 | – | – |
| HSDGIFTDSYSRYRKQMAVKKYLAAVL [168 original] | 32.4 | – | 312490 | – | – |
| KRLGALFNPYFDPLQWKNSDFE [143 original] | 39.5 | – | 555860 | – | – |
| KRYSRLDYLINGIYVDI [114 original] | 46.9 | – | 619843 | – | – |
